This passage reports 3 h FOB score results from the OligoGym collection.

HELM strings list units from the 5' end as sugar, base in round brackets, then linkage (d deoxyribose, r ribose, m 2'-O-methyl, p phosphodiester). Strings are as the collection lists them; they lack the last nucleoside at the 3' end of the tested compound. [moe] = 2'-O-(2-methoxyethyl) (MOE); [sp] = phosphorothioate linkage; [m5C] = 5-methylcytosine

This data set addresses GFAP. Nature of the data set: mouse, dose not given. The note with it: ASO.
“RNA1{[moe](A)[sp].[moe](G)p.[moe]([m5C])p.[moe](A)p.[moe](T)[sp].d(T)[sp].d(T)[sp].d(G)[sp].d(T)[sp].d([m5C])[sp].d(T)[sp].d(T)[sp].d(T)[sp].[moe](A)p.[moe](T)p.[moe](T)[sp].[moe](T)}$$$$ (last 3' nucleoside missing)” returned a 3 h FOB score of 3 score 0-7.

Substance “RNA1{[moe](A)[sp].[moe](G)p.[moe]([m5C])p.[moe](A)p.[moe](T)[sp].d(T)[sp].d(T)[sp].d(G)[sp].d(T)[sp].d([m5C])[sp].d(T)[sp].d(T)[sp].d(T)[sp].d(A)[sp].d(T)[sp].[moe](T)p.[moe](T)p.[moe](T)[sp].[moe](T)}$$$$ (last 3' nucleoside missing)” had a 3 h FOB score of 1 score 0-7.

“RNA1{[moe](A)[sp].[moe](G)p.[moe]([m5C])p.[moe](A)p.[moe](T)p.[moe](T)p.d(T)[sp].d(G)[sp].d(T)[sp].d([m5C])[sp].d(T)[sp].d(T)[sp].d(T)[sp].d(A)[sp].d(T)[sp].d(T)[sp].[moe](T)p.[moe](T)[sp].[moe](T)}$$$$ (last 3' nucleoside missing)” showed a 3 h FOB score of 1 score 0-7.

As for “RNA1{[moe](A)[sp].[moe](G)p.[moe]([m5C])p.[moe](A)p.d(T)[sp].d(T)[sp].d(T)[sp].d(G)[sp].d(T)[sp].d([m5C])[sp].d(T)[sp].d(T)[sp].d(T)[sp].d(A)[sp].[moe](T)p.[moe](T)p.[moe](T)p.[moe](T)[sp].[moe](T)}$$$$ (last 3' nucleoside missing)”, the 3 h FOB score stood at 1 score 0-7.

Turning to “RNA1{[moe](A)[sp].[moe](G)p.[moe]([m5C])p.[moe]([m5C])p.[moe](A)[sp].d(G)[sp].d(T)[sp].d(G)[sp].d(T)[sp].d([m5C])[sp].d(T)[sp].d(T)[sp].d([m5C])[sp].d(A)[sp].d([m5C])[sp].[moe](T)p.[moe](T)p.[moe](T)[sp].[moe](G)}$$$$ (last 3' nucleoside missing)”, the 3 h FOB score was found to be 2 score 0-7.

As to “RNA1{[moe](A)[sp].[moe](G)p.[moe]([m5C])p.[moe]([m5C])p.[moe](T)[sp].d(G)[sp].d(G)[sp].d(T)[sp].d(T)[sp].d(A)[sp].d(G)[sp].d([m5C])[sp].d([m5C])[sp].[moe](T)p.[moe](T)p.[moe](T)[sp].[moe]([m5C])}$$$$ (last 3' nucleoside missing)”, the 3 h FOB score was found to be 4 score 0-7.

Substance “RNA1{[moe](A)[sp].[moe](G)p.[moe]([m5C])p.[moe]([m5C])p.[moe]([m5C])[sp].d([m5C])[sp].d(A)[sp].d([m5C])[sp].d([m5C])[sp].d(T)[sp].d(A)[sp].d(G)[sp].d(A)[sp].d(A)[sp].d(G)[sp].[moe](T)p.[moe](A)p.[moe]([m5C])[sp].[moe]([m5C])}$$$$ (last 3' nucleoside missing)” returned a 3 h FOB score of 2 score 0-7.

For “RNA1{[moe](A)[sp].[moe](T)p.[moe](G)p.[moe](G)p.[moe](G)[sp].d(T)[sp].d(G)[sp].d(A)[sp].d(G)[sp].d(G)[sp].d(T)[sp].d(G)[sp].d(A)[sp].d(G)[sp].d(G)[sp].[moe](A)p.[moe](G)p.[moe](T)[sp].[moe]([m5C])}$$$$ (last 3' nucleoside missing)”, the 3 h FOB score was found to be 5 score 0-7.

For “RNA1{[moe](A)[sp].[moe](T)p.[moe](T)p.[moe](T)p.[moe](A)[sp].d(A)[sp].d([m5C])[sp].d(A)[sp].d(T)[sp].d(T)[sp].d(A)[sp].d(A)[sp].d(G)[sp].d(A)[sp].d(G)[sp].[moe]([m5C])p.[moe](A)p.[moe](G)[sp].[moe](G)}$$$$ (last 3' nucleoside missing)”, the 3 h FOB score came out at 4 score 0-7.

For “RNA1{[moe](A)[sp].[moe](T)p.[moe](T)p.[moe](T)p.[moe](G)[sp].d(T)[sp].d([m5C])[sp].d(T)[sp].d(T)[sp].d(T)[sp].d(A)[sp].d(T)[sp].d(T)[sp].[moe](T)p.[moe](T)p.[moe](T)[sp].[moe]([m5C])}$$$$ (last 3' nucleoside missing)”, the 3 h FOB score was found to be 0 score 0-7.
